The results in this text go back to PMC8333425, “Discovery of a dual Ras and ARF6 inhibitor from a GPCR endocytosis screen” (Nature Communications, 2021).

One assay has as its system B2R. The assay can be described thus: Endosomal BRET assay of agonist-mediated B2R internalization (B2R-RlucII / Endo-rGFP). It is filed as cell-based, human. An excerpt:
(§1) We performed a HT campaign in HEK293 cells using the bystander endosomal BRET sensor, which consists of a Renilla luciferase (RlucII)-tagged AT1R and an acceptor renilla GFP (rGFP) anchored to endosomes through an Endofin-FYVE (Endo-rGFP) domain[12]. AngII-mediated trafficking of AT1R to endosomes was screened against commercial libraries of ~115,000 small molecules (Fig. 1a and Supplementary Data 1). Because our assay is based on luminescence and fluorescence, we excluded 6610 compounds that quenched more than 50% of the luciferase or GFP signals. After excluding 5 AT1R antagonists, we conserved hit compounds blocking by more than 40%, as well as those potentiating by more than 100% receptor internalization. From this collection of 943 compounds, a second validation on AT1R internalization was performed using the same BRET assay, as well as on the agonist-mediated B2R internalization, this time using B2R-RlucII and Endo-rGFP. Only compounds that were revalidated on AT1R and affected B2R endocytosis were kept, which included forty hits (20 potentiators and 20 inhibitors) (Fig. 1b and Supplementary Data 2). We focused on inhibitors that were commercially available at the beginning of the project and tested their cell toxicity by microscopy, looking at cells expressing B2R tagged with YFP, which highlights cell contours and potential morphological changes, such as rounding up of cells following treatment with 50 μM of the compounds that may have indicated cell death. None of the inhibitors tested caused abnormal cell morphological changes when cells were treated with compounds as compared to DMSO-treated cells. Inhibitors were also assessed in terms of structure novelty, derivatization potential, and commercial availability of analogs (within 95–98% similarity from Tanimoto metric, Sci-Finder, https://scifinder-n.cas.org), for structure-activity relationship studies (SAR). They were scored 1–5, from best to worst. We excluded compounds with potential nucleophilic reactivity (e.g., Michael addition: compounds 7, 26, and 27), those reported to have biological activities (compounds 8, 20, 25, 30, and 35) and/or showing autofluorescence (compound 26). Compound 19 ranked high, but only had one other molecule with a similar structure available. Although other molecules could be interesting in their own rights as endocytosis inhibitors (e.g., compounds 1, 9, 11, 12, 13, 24, 31, and 37), we focused on compound 21 (Fig. 1c) because not only did it rank high in our analysis, but it was also the only compound with substantially more similar analogs commercially available at the time of these investigations. In the screen and the follow-up validation assay, 21 inhibited more than 50% AT1R internalization and more than 65% B2R internalization (Supplementary Data 2). […] Because β-arrestins are critically involved in GPCR endocytosis and trafficking in cells, we assessed 21’s effects on β-arrestins’ recruitment to AT1R and B2R at the PM using a BRET assay, as well as their trafficking into endosomes by microscopy.
(§2) HEK293SL cells were seeded at a density of 7.5 × 10^5 cells per 100-mm dish and 24 h later, transiently transfected as such. For receptor internalization experiments, cells were transfected with 0.12 μg AT1R-RlucII, B2R-RlucII, or β2AR-RlucII and 0.48 μg of either rGFP-CAAX (to assess removal from the PM) or rGFP-FYVE (to assess accumulation in the endosomes). For β-arrestin recruitment assays, cells were transfected with 0.48 μg of receptor-YFP along with 0.12 μg of β-arrestin-RlucII. For β-arrestin/AP-2 binding experiments, cells were transfected with 1 μg Flag-AT1R, 1 μg β2-Adaptin-YFP, and 0.12 μg β-arrestin2-RlucII. For G protein activation, cells were transfected with 3 μg of sp-Flag-AT1R along with either 4.5 μg of the Gαq-polycistronic BRET sensor or 0.24 μg of the Gαi3-RlucII and 0.6 μg of GFP10-Gγ2 and Gβ1 sensors or 0.12 μg PKN-RBD-RlucII and 0.48 μg of rGFP-CAAX. […]
Background: BRET reads energy transfer from a luciferase to a nearby fluorophore.

Another assay concerns the target T1, ARF6 (Homo sapiens, UniProt P62330).
T1 construct: expressed in transfected cells; host or cells: HEK293SL
Briefly: GST-GGA3-PBD pull-down of EGFR-mediated ARF6 activation in MDA-MB-231 cells. It is filed as cell-based. To be noted: 50 μM. How it is done: (§3) Activation of ARF1, ARF6, Ras, and Rho were assessed by using GST pull-down assays. HEK293SL cells were transiently transfected with 3 µg AT1R-flag only (Ras and Rho) or along with 500 ng HA-ARF6 (ARF6) or HA-ARF1 (ARF1). Forty-eight hours later, the HEK293 or MDA-MB-231 cells were serum-starved for 4 h with DMEM containing 20 mM HEPES then pretreated with DMSO or Rasarfin (50 µM) for 30 min. Cells were then stimulated with 1 µM AngII or 100 ng/ml EGF for 0 and 2 min. Cells were then washed once with ice-cold PBS and lysed for 30 min at 4 °C in 300 µl of lysis buffer (pH 7.5, 50 mM Tris-HCl, 140 mM NaCl, 5 mM MgCl2, 10% glycerol (v/v), 1% Nonidet P-40 (v/v), 1 mM dithiothreitol) supplemented with protease inhibitors (1 mM phenylmethyl-sulfonyl fluoride (PMSF), 10 µg/ml leupeptin, 5 µg/ml aprotinin, 1 µg/ml pepstatin A) and phosphatase inhibitors (20 mM NaF, 0.025 mM pervanadate). The samples were cleared by centrifugation and 30 µl (cell lysates) was kept for assessing total protein contents. The remaining was transferred to fresh tubes with 20 µg of either GST, GST-GGA3-PBD, GST-Raf1-RBD or GST-Rhotekin-RBD coupled to glutathione resin and rotated for 1–2 h at 4 °C. […] ImageLab 5.2 software was used to quantify the digital blots as fold of the amount of pulled down protein over total protein. […]

The next assay concerns the target H-Ras (Homo sapiens, UniProt P01112). The assay can be described thus: GST-Raf1-RBD pull-down of EGFR-mediated H-Ras activation in MDA-MB-231 cells. On the set-up: endogenous in cells; host or cells: MDA-MB-231. To be noted: 50 μM. It is filed as cell-based. The protocol:
as §3

Another assay deals with β2AR. Briefly: Endosomal BRET assay of isoproterenol-mediated β2AR internalization. It is filed as cell-based, human.
Source text: as §1, §2

pIC50: −log10 of the molar value.

T1 sequence (P62330 whole entry, species assumed): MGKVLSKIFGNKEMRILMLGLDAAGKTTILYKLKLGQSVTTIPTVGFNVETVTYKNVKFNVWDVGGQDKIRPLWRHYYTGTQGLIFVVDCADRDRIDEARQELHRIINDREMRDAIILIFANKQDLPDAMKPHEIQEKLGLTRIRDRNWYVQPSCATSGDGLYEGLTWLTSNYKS
Chain of H-Ras (P01112 whole entry): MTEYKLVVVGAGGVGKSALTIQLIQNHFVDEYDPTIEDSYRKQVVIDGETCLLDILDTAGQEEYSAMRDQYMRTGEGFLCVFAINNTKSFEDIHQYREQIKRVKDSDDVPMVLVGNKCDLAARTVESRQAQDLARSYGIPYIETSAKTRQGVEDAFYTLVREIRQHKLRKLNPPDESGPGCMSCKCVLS

Broadly, the pIC50 is −log10 of the IC50, conventionally taken in molar units. Take `CC(C)C(=O)N1CCN(c2ccc(NC(=O)c3cc4ccccc4o3)cc2Cl)CC1` [Compound 21]: the pIC50 in the assay with B2R (Homo sapiens, BK, into endosomes, read-out: IC50 for inhibition of B2R internalization) was 4.96; in the assay with β2AR (Homo sapiens, read-out: IC50 for inhibition of isoproterenol-mediated β2AR internalization into endosomes), 4.82. Besides, the “B2R internalization into endosomes, ligand-promoted BRET (Mean)” value with B2R (Log [Comp21] (M) -4.3) was 20.7288 percent compared to DMSO; with B2R (Log [Comp21] (M) -4.6) it was 30.2526 percent compared to DMSO; in the assay on B2R (Log [Comp21] (M) -5), 61.9767 percent compared to DMSO; in the assay on B2R (Log [Comp21] (M) -5.3), 83.8073 percent compared to DMSO; with B2R (Log [Comp 21] (M) -6) it was 104.977 percent compared to DMSO; in the assay with B2R (Log [Comp21] (M) -6.3), 107.04 percent compared to DMSO. Further, the “B2R internalization into endosomes, ligand-promoted BRET (Mean)” value with B2R (Log [Comp 21] (M) -7) was 102.555 percent compared to DMSO. The “inhibition of B2R internalization” value in the assay with B2R (follow-up validation assay) is listed as “more than 65%”. Moreover, the “B2R Inhibition (%DMSO)” value in the assay with B2R (one experiment, negative = potentiation) came out at 66.5725 %DMSO. In addition, at ARF6, the “ARF6 activity in MDA-MB-231 cells (pull-down)” value is given as “inhibited”. For the same compound, the “Ras activity in MDA-MB-231 cells (pull-down)” value on H-Ras is recorded as “inhibited”. Further, the “β2AR internalization into endosomes, ligand-promoted BRET (Mean)” value is 36.2133 percent compared to DMSO with β2AR (Log [Comp21] (M) -4.3); 48.1993 percent compared to DMSO in the assay on β2AR (Log [Comp21] (M) -4.6); 64.3705 percent compared to DMSO in the assay with β2AR (Log [Comp21] (M) -5); 89.3672 percent compared to DMSO with β2AR (Log [Comp21] (M) -5.3); 95.9498 percent compared to DMSO in the assay with β2AR (Log [Comp 21] (M) -6); 95.3626 percent compared to DMSO in the assay on β2AR (Log [Comp21] (M) -6.3). The “β2AR internalization into endosomes, ligand-promoted BRET (Mean)” value in the assay on β2AR (Log [Comp 21] (M) -7) is recorded as 95.4832 percent compared to DMSO.
